Each compound was assayed against T1, human PAH with the R408W mutation (Homo sapiens, UniProt P00439, R408W) (assay: Cell Based Phenylalanine Flux Assay). Conditions: A375 cells expressing R408W PAH; 24 hrs with compound, then 20 µM sepiapterin and 800 µM 13C9,15N-Phenylalanine for 4 hours; 13C-Tyrosine by LC-MS; average where tested multiple times; read-out: AC50.
T1 construct: expressed in transfected cells
T1 sequence (P00439 1-452 R408W): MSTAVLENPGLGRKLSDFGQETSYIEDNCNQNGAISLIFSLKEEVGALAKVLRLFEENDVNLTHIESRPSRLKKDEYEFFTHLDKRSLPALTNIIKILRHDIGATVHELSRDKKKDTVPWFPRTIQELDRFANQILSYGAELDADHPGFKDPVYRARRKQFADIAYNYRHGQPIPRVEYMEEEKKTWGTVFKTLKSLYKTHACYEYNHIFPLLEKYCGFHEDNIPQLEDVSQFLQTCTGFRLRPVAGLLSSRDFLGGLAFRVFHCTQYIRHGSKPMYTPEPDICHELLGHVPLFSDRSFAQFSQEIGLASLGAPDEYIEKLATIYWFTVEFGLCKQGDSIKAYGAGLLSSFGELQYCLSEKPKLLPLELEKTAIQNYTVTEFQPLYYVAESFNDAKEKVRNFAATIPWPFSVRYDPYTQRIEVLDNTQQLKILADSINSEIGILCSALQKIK
`COCc1ccc2c(C(=O)N3CCc4[nH]cnc4[C@H]3c3cc4cccc(F)n4n3)cnn2c1` (single isomer, unassigned) was tested, and the AC50 was 1000 to 5000 nM.
`COCc1nnc(C(=O)N2CCc3[nH]cnc3C2c2cc3ccccn3n2)o1` (stereo not drawn) was tested, and the AC50 was 1000 to 5000 nM.
For `COc1cccn2nc(C3c4nc[nH]c4CCN3C(=O)c3cc(C(C)(C)C)nn3C)cc12` (stereo not drawn), the AC50 was 1000 to 5000 nM.
Compound `Cc1cccc2cc(C3c4nc[nH]c4CCN3c3nnc(C(C)(C)C)o3)nn12` (stereo not drawn) has an AC50 of 1000 to 5000 nM.
Work on `Cc1nnc(C(=O)N2CCc3[nH]cnc3[C@H]2c2cc3ccc(F)cn3n2)o1` (single isomer, unassigned) yielded an AC50 of 1000 to 5000 nM.
`Fc1cccc2cc(C3c4nc[nH]c4CCN3c3nnc(C4CC4)o3)nn12` (stereo not drawn) gave an AC50 of 1000 to 5000 nM.
`Cc1nc(C(C)(C)O)oc1C(=O)N1CCc2[nH]cnc2[C@@H]1c1cc2cccc(C(F)(F)F)n2n1` (single isomer, unassigned) showed an AC50 of 1000 to 5000 nM.
`COCc1ncc(C(=O)N2CCc3[nH]cnc3C2c2cc3ccccn3n2)s1` (stereo not drawn) gave an AC50 greater than 5000 nM.

Same assay, conditions: A375 cells expressing human PAH R408W; 24 hrs compound incubation; 13C-Tyrosine by LC-MS; average where tested multiple times; read-out: AC50
For `Cn1ccc(-c2ncc(C(=O)N3CCc4[nH]cnc4[C@H]3c3cc4c(C(F)(F)F)cccn4n3)o2)n1` [Example 2109, (S)-(2-(1-methyl-1H-pyrazol-3-yl)oxazol-5-yl)(4-(4-(trifluoromethyl)pyrazolo[1,5-a]pyridin-2-yl)-1,4,6,7-tetrahydro-5H-imidazo[4,5-c]pyridin-5-yl)methanone], the AC50 was 500 to 1000 nM.
`FC(F)(F)c1cccn2nc([C@@H]3c4nc[nH]c4CCN3c3nnc(-c4ccncn4)o3)cc12` [Example 2162, (S)-2-(pyrimidin-4-yl)-5-(4-(4-(trifluoromethyl)pyrazolo[1,5-a]pyridin-2-yl)-1,4,6,7-tetrahydro-5H-imidazo[4,5-c]pyridin-5-yl)-1,3,4-oxadiazole] gave an AC50 of 500 to 1000 nM.
`COc1cccn2nc([C@@H]3c4nc[nH]c4CCN3C(=O)c3cnn4cc(C)ccc34)cc12` [Example 2470, (S)-(4-(4-methoxypyrazolo[1,5-a]pyridin-2-yl)-6,7-dihydro-1H-imidazo[4,5-c]pyridin-5(4H)-yl)(6-methylpyrazolo[1,5-a]pyridin-3-yl)methanone] showed an AC50 of 1000 to 5000 nM.
`Fc1cccc(F)c1-c1nnc(N2CCc3[nH]cnc3[C@H]2c2cc3c(C(F)(F)F)cccn3n2)o1` [Example 1847, (S)-2-(2,6-difluorophenyl)-5-(4-(4-(trifluoromethyl)pyrazolo[1,5-a]pyridin-2-yl)-6,7-dihydro-1H-imidazo[4,5-c]pyridin-5(4H)-yl)-1,3,4-oxadiazole] showed an AC50 of less than 500 nM.
For `Cc1c[nH]nc1-c1nnc(C(=O)N2CCc3[nH]cnc3[C@@H]2c2cc3c(C)cccn3n2)o1` [Example 2293, (R)-(5-(4-methyl-1H-pyrazol-3-yl)-1,3,4-oxadiazol-2-yl)(4-(4-methylpyrazolo[1,5-a]pyridin-2-yl)-1,4,6,7-tetrahydro-5H-imidazo[4,5-c]pyridin-5-yl)methanone], the AC50 was greater than 5000 nM.
In the case of `Cc1cccc2cc([C@@H]3c4nc[nH]c4CCN3C(=O)c3nnc(-c4cn(C)cn4)o3)nn12` [Example 2395, (S)-(5-(1-methyl-1H-imidazol-4-yl)-1,3,4-oxadiazol-2-yl)(4-(7-methylpyrazolo[1,5-a]pyridin-2-yl)-6,7-dihydro-1H-imidazo[4,5-c]pyridin-5(4H)-yl)methanone], the AC50 is reported as 1000 to 5000 nM.
Compound `FC(F)Oc1cccn2nc([C@H]3c4nc[nH]c4CCN3c3ncc(C(F)(F)F)cn3)cc12` [Example 2257, (R)-4-(4-(difluoromethoxy)pyrazolo[1,5-a]pyridin-2-yl)-5-(5-(trifluoromethyl)pyrimidin-2-yl)-4,5,6,7-tetrahydro-1H-imidazo[4,5-c]pyridine] has an AC50 greater than 5000 nM.

Same assay, conditions: A375 cells expressing human R408W PAH; 24 hrs compound incubation; 13C-Tyrosine by LC-MS; average where tested multiple times; read-out: AC50
With `Cn1cncc1-c1nc(C(F)F)c(C(=O)N2CCc3[nH]cnc3[C@H]2c2cc3c(F)cccn3n2)o1` [Example 889, (S)-(4-(difluoromethyl)-2-(1-methyl-1H-imidazol-5-yl)oxazol-5-yl)(4-(4-fluoropyrazolo[1,5-a]pyridin-2-yl)-6,7-dihydro-1H-imidazo[4,5-c]pyridin-5(4H)-yl)methanone] the AC50 was 500 to 1000 nM.
With `Cc1cccn2nc([C@@H]3c4nc[nH]c4CCN3c3ncc(C(F)(F)F)cn3)cc12` [Example 1754, (S)-4-(4-methylpyrazolo[1,5-a]pyridin-2-yl)-5-(5-(trifluoromethyl)pyrimidin-2-yl)-4,5,6,7-tetrahydro-1H-imidazo[4,5-c]pyridine] the AC50 was less than 500 nM.
Work on `CN(C)Cc1ccc2c(C(=O)N3CCc4[nH]cnc4[C@@H]3c3cc4c(C(F)(F)F)cccn4n3)cnn2c1` [Example 1547, (R)-(6-((dimethylamino)methyl)pyrazolo[1,5-a]pyridin-3-yl)(4-(4-(trifluoromethyl)pyrazolo[1,5-a]pyridin-2-yl)-6,7-dihydro-1H-imidazo[4,5-c]pyridin-5(4H)-yl)methanone] yielded an AC50 greater than 5000 nM.
`CC(C)(F)c1nnc(C(=O)N2CCc3[nH]cnc3[C@@H]2c2cc3cccc(C(F)(F)F)n3n2)o1` [Example 1160, (R)-(5-(2-fluoropropan-2-yl)-1,3,4-oxadiazol-2-yl)(4-(7-(trifluoromethyl)pyrazolo[1,5-a]pyridin-2-yl)-6,7-dihydro-1H-imidazo[4,5-c]pyridin-5(4H)-yl)methanone] gave an AC50 of 1000 to 5000 nM.
`Cc1c(-c2nnc(C(=O)N3CCc4[nH]cnc4[C@H]3c3cc4cccc(C(F)F)n4n3)o2)cnn1C` [Example 1366, (S)-(4-(7-(difluoromethyl)pyrazolo[1,5-a]pyridin-2-yl)-6,7-dihydro-1H-imidazo[4,5-c]pyridin-5(4H)-yl)(5-(1,5-dimethyl-1H-pyrazol-4-yl)-1,3,4-oxadiazol-2-yl)methanone] was tested, and the AC50 was less than 500 nM.
`Cc1ncoc1C(=O)N1CCc2[nH]cnc2[C@H]1c1cc2c(C)cccn2n1` [Example 770, (S)-(4-methyloxazol-5-yl)(4-(4-methylpyrazolo[1,5-a]pyridin-2-yl)-6,7-dihydro-1H-imidazo[4,5-c]pyridin-5(4H)-yl)methanone] gave an AC50 of less than 500 nM.
`Cc1cccc2cc([C@H]3c4nc[nH]c4CCN3C(=O)c3nnc(-c4cccnc4)o3)nn12` [Example 1309, (R)-(4-(7-methylpyrazolo[1,5-a]pyridin-2-yl)-6,7-dihydro-1H-imidazo[4,5-c]pyridin-5(4H)-yl)(5-(pyridin-3-yl)-1,3,4-oxadiazol-2-yl)methanone] showed an AC50 of 1000 to 5000 nM.
`O=C(c1cnn2ccccc12)N1CCc2[nH]cnc2[C@@H]1c1cc2c(C(F)F)cccn2n1` [Example 1731, (R)-(4-(4-(difluoromethyl)pyrazolo[1,5-a]pyridin-2-yl)-6,7-dihydro-1H-imidazo[4,5-c]pyridin-5(4H)-yl)(pyrazolo[1,5-a]pyridin-3-yl)methanone] showed an AC50 greater than 5000 nM.
With `Cc1nc(C(=O)N2CCc3[nH]cnc3[C@H]2c2cc3c(C(F)(F)F)cccn3n2)n(C)n1` [Example 1082, (S)-(1,3-dimethyl-1H-1,2,4-triazol-5-yl)(4-(4-(trifluoromethyl)pyrazolo[1,5-a]pyridin-2-yl)-6,7-dihydro-1H-imidazo[4,5-c]pyridin-5(4H)-yl)methanone] the AC50 was less than 500 nM.
In the case of `Cc1c(-c2nnc(C(=O)N3CCc4[nH]cnc4[C@@H]3c3cc4cccc(F)n4n3)o2)cnn1C` [Example 1463, (R)-(5-(1,5-dimethyl-1H-pyrazol-4-yl)-1,3,4-oxadiazol-2-yl)(4-(7-fluoropyrazolo[1,5-a]pyridin-2-yl)-6,7-dihydro-1H-imidazo[4,5-c]pyridin-5(4H)-yl)methanone], the AC50 is reported as 1000 to 5000 nM.
Work on `O=C(c1cnco1)N1CCc2[nH]cnc2[C@H]1c1cc2c(C(F)(F)F)cccn2n1` [Example 1158, (S)-oxazol-5-yl(4-(4-(trifluoromethyl)pyrazolo[1,5-a]pyridin-2-yl)-6,7-dihydro-1H-imidazo[4,5-c]pyridin-5(4H)-yl)methanone] yielded an AC50 of 500 to 1000 nM.
With `O=C(c1ccnn1C(F)F)N1CCc2[nH]cnc2[C@@H]1c1cc2ccc(F)cn2n1` [Example 1089, (R)-(1-(difluoromethyl)-1H-pyrazol-5-yl)(4-(6-fluoropyrazolo[1,5-a]pyridin-2-yl)-6,7-dihydro-1H-imidazo[4,5-c]pyridin-5(4H)-yl)methanone] the AC50 was greater than 5000 nM.
`O=C(c1nnc(-c2ccn(C(F)(F)F)n2)o1)N1CCc2[nH]cnc2[C@H]1c1cc2cccc(C(F)(F)F)n2n1` [Example 1542, (S)-(5-(1-(trifluoromethyl)-1H-pyrazol-3-yl)-1,3,4-oxadiazol-2-yl)(4-(7-(trifluoromethyl)pyrazolo[1,5-a]pyridin-2-yl)-6,7-dihydro-1H-imidazo[4,5-c]pyridin-5(4H)-yl)methanone] was tested, and the AC50 was 500 to 1000 nM.
`FC(F)c1cccn2nc([C@@H]3c4nc[nH]c4CCN3c3nnc(C(F)(F)F)o3)cc12` [Example 1767, (S)-2-(4-(4-(difluoromethyl)pyrazolo[1,5-a]pyridin-2-yl)-6,7-dihydro-1H-imidazo[4,5-c]pyridin-5(4H)-yl)-5-(trifluoromethyl)-1,3,4-oxadiazole] gave an AC50 of less than 500 nM.
In the case of `Cn1cnc(-c2nnc(C(=O)N3CCc4[nH]cnc4[C@@H]3c3cc4c(F)cccn4n3)o2)c1` [Example 808, (R)-(4-(4-fluoropyrazolo[1,5-a]pyridin-2-yl)-6,7-dihydro-1H-imidazo[4,5-c]pyridin-5(4H)-yl)(5-(1-methyl-1H-imidazol-4-yl)-1,3,4-oxadiazol-2-yl)methanone], the AC50 is reported as greater than 5000 nM.
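Also: after compound treatment, cells received sepiapterin plus isotope-labelled Phenylalanine for 4 hours, then labelled Tyrosine in the medium was quantified, 10-point 2-fold dilution series run in duplicate.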
